System: CT26 cells
Experiment: Synergistic anticancer effect of refined product and 5-FU on colon carcinoma cells
Assay type: in vivo, mouse
Settings: BALB/c mice with subcutaneous CT26, end of 3rd week, treatments per Table 8, mean ± S.D.
From the text: The male BALB/c mice were randomly divided into the following groups (n=8 for each group): a normal control group, a pathological control group, a 5-FU group, and a synergy group. 1×10^6 CT26 cells were subcutaneously injected into the leg of each mouse in the pathological control group, the 5-FU group, and the synergy group. The mice in the normal control group received no CT26 cells.
After the injection of CT26 cells, the mice in the 5-FU group, the synergy group, and the pathological control group were subjected to the treatments shown in Table 8 until the end of the 3rd week after the injection of CT26 cells. The mice in the normal control group received no treatment.
At the end of the 3rd week after the injection of CT26 cells, the mice in each group were anesthetized using CO2, and blood was collected from the celiac vein. The blood collected was subjected to total white blood cell counting using an automated hematology analyzer (Sysmex, KX-21 N). Besides, tumors were collected and weighted.

Number of total white blood cells (pathological control 6.59 ± 1.46): 4.46 ± 0.77
SMILES: O=c1[nH]cc(F)c(=O)[nH]1 [5-FU, 5-fluorouracil]
Tumor weight (pathological control 4.10 ± 0.92): 3.19 ± 1.47

From patent US10376577B2, “Refined product obtained from rice hull and preparation process and use thereof” (China Medical University, priority 2014, dated 2019)
